# Structures can show the parent of a compound that is named as a salt.
row,melting point,Compound
1,227 °C,CC(C)n1c(=O)c(C(=O)NCC2CCN(CC3(O)CCOCC3)CC2)cc2c(Cl)cccc21
2,222 °C,Cc1cccc2c1cc(C(=O)NCC1CCN(CC3(O)CCOCC3)CC1)c(=O)n2C(C)C
3,240.7 °C,Cc1cccc2c1cc(C(=O)NCC1CCN(CC3CCNCC3)CC1)c(=O)n2C(C)C (as salt: hydrochloride)
4,275.7 °C,CC(C)n1c(=O)c(C(=O)NCC2CCN(CC3(O)CCOCC3)CC2)cc2c(F)cccc21 (as salt: hydrochloride)
